According to patent US7642265B2, “Benzimidazoles and analogs thereof as antivirals” (Isis Pharmaceuticals, Inc., priority 2002, dated 2010):
Like-named read-outs stand apart in the source and are kept apart here. One block for each compound: values may come before it.

Tests used:
[1] = test system: stem IIa region of the HCV IRES (5′-UTR of HCV RNA); test: Mass spectrometry based binding assay; conditions: for binding percentage of ligand to target: Table 1, ligand 50 μM, IIa target 2.5 μM
[2] = Single dose in vivo pharmacokinetic study; set-up: species or system rats; conditions: plasma, rat, single 3.0 mg/kg IV dose, mean; for AUC: iv, 3 mg/kg
Procedure: A single dose pharmacokinetic study was performed to investigate the pharmacokinetics of representative compounds. Of particular interest was the ability of the compounds to accumulate in liver, which is the target tissue for HCV chemotherapy as it is the primary reservoir of virus. 3-4 rats per group were administered a single dose (3 mg/kg intravenously, IV or 6 mg/kg orally, PO). Blood samples were taken at 0.25, 0.5, 1, 2, 3, 4, 6, and 8 h timepoints, and pharmacokinetic parameters calculated. Both representative compounds were rapidly distributed to tissues, as evidenced by the high clearance rates and volumes of distribution, and low levels of excretion (ca 10% of total drug in urine and feces at 8 h). Major tissues were examined for presence of drug. […] The tissue accumulation for the IV dose is shown in FIG. 1, as a function of concentration and percent of total administered dose.

Compound: CN(C)CCCOc1ccc2nc(N)[nH]c2c1
MS target selectivity ([1]; Table 3): ~2

Compound: CN(C)CCCn1c(N)nc2ccccc21 [drawing 78]
MS target selectivity ([1]; Table 2): ~3

Compound: Nc1nc2ccccc2n1CCCN1CCCC1
binding percentage of ligand to target [1]: 15%

Compound: CN(C)CCCOc1ccc2nc(N)n(CCCN(C)C)c2c1 [drawing 81]
MS target selectivity ([1]; Table 3): ~15

Compound: COc1ccc2nc(N)n(CCCN(C)C)c2c1
MS target selectivity ([1]; Table 2): ~10

MRT [2]: 3.1 h
half-life [2]: 37.5 h
AUC ([2]; read-out: AUC): 0.311 µg·h/mL
AUC ([2]; read-out: AUC Extrap): 1.93 µg·h/mL
Compound: CN(C)CCCn1c(N)nc2ccc(OCCCN(C)Cc3ccco3)cc21 [IBIS00405678]

Compound: CCN(CC)CCn1c(N)nc2ccccc21
binding percentage of ligand to target [1]: 15%

Compound: CN(C)CCCn1c(N)nc2ccccc21 [drawing 82]
MS target selectivity ([1]; Table 3): ~3

MRT [2]: 2 h
half-life [2]: 14 h
AUC ([2]; read-out: AUC): 0.165 µg·h/mL
AUC ([2]; read-out: AUC Extrap): 0.32 µg·h/mL
Compound: CN(C)CC1CNc2nc3ccc(OCCCN(C)Cc4ccccn4)cc3n2C1 (stereo not shown) [IBIS00528637]

Compound: CN(C)CCCOc1ccc2nc(N)n(CCCN(C)C)c2c1 [drawing 80]
MS target selectivity ([1]; Table 2): ~15

Compound: CN(C)CCCn1c(N)nc2ccccc21 [drawing 73]
binding percentage of ligand to target [1]: 56% binding

Compound: Nc1nc2ccccc2n1CCOc1ccccc1
binding percentage of ligand to target [1]: 6%

Compound: CN(C)CCn1c(N)nc2ccccc21
binding percentage of ligand to target [1]: 11%
